Data reported in patent US9554576B2, “Tetrazolinone compounds and their use as pesticides” (SUMITOMO CHEMICAL COMPANY, LIMITED, priority 2012, dated 2017).

Tested on: wheat rust fungi (Puccinia recondita)
Assay: Comparative Test Example: wheat rust foliar spray test
Format: in vivo
Details: wheat (cv; Shirogane), 500 ppm foliar spray, inoculated after 5 days
Procedure: The spores of wheat rust fungi (Puccinia recondita) were sprinkling-inoculated. After inoculation, the plants were placed under a dark and humid condition at 23° C. for 1 day and were then cultivated at 20° C. under lighting for 8 days and a lesion area was observed.

Cc1cc(C)n(-c2ccc(OCc3ccccc3-n3nnn(C)c3=O)c(Cl)c2)n1 [control compound, 1-{2-[2-chloro-4-(3,5-dimethyl-pyrazol-1-yl)-phenoxymethyl]-phenyl}-4-methyl-1,4-dihydrotetrazole-5-one]
lesion area compared to the lesion area in untreated plants: ≥ 70%
